Biological target: T1, Human M4 (Homo sapiens, UniProt P08173)
T1 construct: expressed in transfected cells; host or cells: CHO-K1 (ATCC), co-transfected with chimeric G protein Gqi5
T1 sequence (P08173 1-479): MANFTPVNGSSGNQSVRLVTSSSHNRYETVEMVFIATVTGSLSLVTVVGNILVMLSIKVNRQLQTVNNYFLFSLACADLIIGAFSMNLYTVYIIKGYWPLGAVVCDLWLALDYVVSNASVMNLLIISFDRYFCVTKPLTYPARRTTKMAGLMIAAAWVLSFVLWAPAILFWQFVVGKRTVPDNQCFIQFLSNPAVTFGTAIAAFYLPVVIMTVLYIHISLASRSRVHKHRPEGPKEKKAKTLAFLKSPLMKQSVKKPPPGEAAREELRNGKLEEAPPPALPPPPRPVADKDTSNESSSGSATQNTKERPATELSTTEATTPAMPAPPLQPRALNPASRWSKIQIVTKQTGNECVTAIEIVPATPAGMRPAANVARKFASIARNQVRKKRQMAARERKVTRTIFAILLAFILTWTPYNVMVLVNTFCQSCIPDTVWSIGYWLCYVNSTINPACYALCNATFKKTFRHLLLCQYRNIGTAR
Test: mAChR M4 cell-based functional assay (calcium flux, antagonism of EC80 acetylcholine response)
Details: M4/Gqi5/CHO-K1 cells; for remaining activity at 30 µM: CHO-K1, % ACh maximum at 30 μM, read-out: Human M4 Emin; for IC50: decrease of response elicited by EC80 acetylcholine; for Human M4 Emin: % ACh maximum at 30 μM
Protocol: Human or rat M4 cDNA, along with the chimeric G protein Gqi5, were transfected into Chinese hamster ovary (CHO-K1) cells purchased from the American Type Culture Collection using Lipofectamine2000. M4/Gqi5/CHO cells were grown in Ham's F-12 medium containing 10% heat-inactivated fetal bovine serum (FBS), 20 mM HEPES, 500 μg/mL G418 sulfate, and 200 μg/mL Hygromycin B.
For high throughput measurement of agonist-evoked increases in intracellular calcium, CHO-K1 cells stably expressing muscarinic receptors were plated in growth medium lacking G418 and hygromycin at 15,000 cells/20 μL/well in Greiner 384-well black-walled, tissue culture (TC)-treated, clear-bottom plates (VWR). Cells were incubated overnight at 37° C. and 5% CO2. The next day, cells were washed using an ELX 405 (BioTek) with assay buffer; the final volume was then aspirated to 20 μL. Next, 20 μL of a 2.3 μM stock of Fluo-4/acetoxymethyl ester (Invitrogen, Carlsbad, Calif.), prepared as a 2.3 mM stock in DMSO and mixed in a 1:1 ratio with 10% (w/v) Pluronic F-127 and diluted in assay buffer, was added to the wells and the cell plates were incubated for 50 min at 37° C. and 5% CO2. Dye was removed by washing with the ELX 405 and the final volume was aspirated to 20 μL. Compound master plates were formatted in a 10 point concentration-response curve (CRC) format (1:3 dilutions) in 100% DMSO with a starting concentration of 10 or 1 mM using a BRAVO liquid handler (Agilent). Test compound CRCs were then transferred to daughter plates (240 nL) using the Echo acoustic plate reformatter (Labcyte, Sunnyvale, Calif.) and then diluted into assay buffer (40 μL) to a 2× stock using a Thermo Fisher Combi (Thermo Fisher Scientific, Waltham, Mass.).
Calcium flux was measured using the Functional Drug Screening System (FDSS) 6000 or 7000 (Hamamatsu Corporation, Tokyo, Japan) as an increase in the fluorescent static ratio. Compounds were applied to cells (20 μL, 2×) using the automated system of the FDSS at 2 seconds into the protocol and the data were collected at 1 Hz. At 143 s, 10 μL of an EC20 concentration of the muscarinic receptor agonist acetylcholine was added (5×), followed by the addition of 12 μL of an EC80 concentration of acetylcholine at the 268 s time point (5×). Agonist activity was analyzed as a concentration-dependent increase in calcium mobilization upon compound addition. Positive allosteric modulator activity was analyzed as a concentration-dependent increase in the EC20 acetylcholine response. Antagonist activity was analyzed as a concentration-dependent decrease in the EC80 acetylcholine response; for the purposes of the tables herein, an IC50 (inhibitory concentration 50) was calculated as a concentration-dependent decrease of the response elicited by an EC80 concentration of acetylcholine. Concentration-response curves were generated using a four-parameter logistical equation in XLFit curve fitting software (IDBS, Bridgewater, N.J.) for Excel (Microsoft, Redmond, Wash.) or Prism (GraphPad Software, Inc., San Diego, Calif.) or the Dotmatics software platform (Dotmatics, Bishop's Stortford, UK).
Compounds were synthesized as described above. Activity (IC50 and Emin) was determined in the mAChR M4 cell-based functional assay as described above and the data are shown in Table 2.

Row | Compound | remaining activity at 30 µM | IC50 | Human M4 Emin
1 | COc1cc(-c2cccc(F)c2)nnc1N[C@H]1C[C@@H]2CN(CC3CCOCC3)C[C@@H]2C1 [compound 1, (3aR,5s,6aS)-N-(6-(3-fluorophenyl)-4-methoxypyridazin-3-yl)-2-((tetrahydro-2H-pyran-4-yl)methyl)octahydrocyclopenta[c]pyrrol-5-amine] | 5% | 10.8 nM | 
2 | COc1cc(-c2ccccc2F)nnc1N[C@H]1C[C@@H]2CN(CC3CCOCC3)C[C@@H]2C1 [compound 2, (3aR,5s,6aS)-N-(6-(2-fluorophenyl)-4-methoxypyridazin-3-yl)-2-((tetrahydro-2H-pyran-4-yl)methyl)octahydrocyclopenta[c]pyrrol-5-amine] | 3% | 10.5 nM | 
3 | COc1cc(-c2ccc(F)cc2)nnc1N[C@H]1C[C@@H]2CN(CC3CCOCC3)C[C@@H]2C1 [compound 3, (3aR,5s,6aS)-N-(6-(4-fluorophenyl)-4-methoxypyridazin-3-yl)-2-((tetrahydro-2H-pyran-4-yl)methyl)octahydrocyclopenta[c]pyrrol-5-amine] | 5% | 48.4 nM | 
4 | COc1cc(-c2cc(F)ccc2F)nnc1N[C@H]1C[C@@H]2CN(CC3CCOCC3)C[C@@H]2C1 [compound 4, (3aR,5s,6aS)-N-(6-(2,5-difluorophenyl)-4-methoxypyridazin-3-yl)-2-((tetrahydro-2H-pyran-4-yl)methyl)octahydrocyclopenta[c]pyrrol-5-amine] | 3% | 12 nM | 
5 | COc1cc(-c2ccc3nn(C)cc3c2)nnc1N[C@H]1C[C@@H]2CN(CC3CCOCC3)C[C@@H]2C1 [compound 5, (3aR,5s,6aS)-N-(4-methoxy-6-(2-methyl-2H-indazol-5-yl)pyridazin-3-yl)-2-((tetrahydro-2H-pyran-4-yl)methyl)octahydrocyclopenta[c]pyrrol-5-amine] | 3% | 3.89 nM | 
6 | COc1cc(-c2cc3cn(C)nc3cc2F)nnc1N[C@H]1C[C@@H]2CN(CC3CCOCC3)C[C@@H]2C1 [compound 6, (3aR,5s,6aS)-N-(6-(6-fluoro-2-methyl-2H-indazol-5-yl)-4-methoxypyridazin-3-yl)-2-((tetrahydro-2H-pyran-4-yl)methyl)octahydrocyclopenta[c]pyrrol-5-amine] | 4% | 44 nM | 
7 | COc1cc(-c2cc(F)ccc2C)nnc1N[C@H]1C[C@@H]2CN(CC3CCOCC3)C[C@@H]2C1 [compound 7, (3aR,5s,6aS)-N-(6-(5-fluoro-2-methylphenyl)-4-methoxypyridazin-3-yl)-2-((tetrahydro-2H-pyran-4-yl)methyl)octahydrocyclopenta[c]pyrrol-5-amine] | 9% | 6.84 nM | 
8 | Cc1ccc(F)cc1-c1cc(S(C)(=O)=O)c(N[C@H]2C[C@@H]3CN(CC4CCOCC4)C[C@@H]3C2)nn1 [compound 9, (3aR,5s,6aS)-N-(6-(5-fluoro-2-methylphenyl)-4-(methylsulfonyl)pyridazin-3-yl)-2-((tetrahydro-2H-pyran-4-yl)methyl)octahydrocyclopenta[c]pyrrol-5-amine] | 3% | 18.4 nM | 
9 | Cc1ccc(F)cc1-c1cc(-c2cc(F)ccc2C)c(N[C@H]2C[C@@H]3CN(CC4CCOCC4)C[C@@H]3C2)nn1 [compound 10, (3aR,5s,6aS)-N-(4,6-bis(5-fluoro-2-methylphenyl)pyridazin-3-yl)-2-((tetrahydro-2H-pyran-4-yl)methyl)octahydrocyclopenta[c]pyrrol-5-amine] | 3% | 384 nM | 
10 | Cc1ccc(F)cc1-c1nnc(N[C@H]2C[C@@H]3CN(CC4CCOCC4)C[C@@H]3C2)cc1C [compound 12, (3aR,5s,6aS)-N-(6-(5-fluoro-2-methylphenyl)-5-methylpyridazin-3-yl)-2-((tetrahydro-2H-pyran-4-yl)methyl)octahydrocyclopenta[c]pyrrol-5-amine] | 2% | 2.55 nM | 

These reach a lower IC50. Values come first.

Row | remaining activity at 30 µM | IC50 | Human M4 Emin | Compound
11 | 3% | 1.98 nM |  | Fc1cc(F)c(F)c(-c2nnc(N[C@H]3C[C@@H]4CN(CC5CCCCO5)C[C@@H]4C3)cc2C(F)F)c1 (single isomer, unassigned) [compound 46]
12 |  | 2.02 nM | 2% | Fc1cc(F)c(F)c(-c2nnc(N[C@H]3C[C@@H]4CN(CC5CCCCO5)C[C@@H]4C3)cc2C(F)F)c1 (single isomer, unassigned) [compound 47]
13 | 2% | 1.3 nM |  | Fc1cc(F)c(F)c(-c2nnc(N[C@H]3C[C@@H]4CN(CC5CCCOC5)C[C@@H]4C3)cc2C(F)F)c1 (single isomer, unassigned) [compound 48]
14 |  | 1.64 nM | 2% | Fc1cc(F)c(F)c(-c2nnc(N[C@H]3C[C@@H]4CN(CC5CCCOC5)C[C@@H]4C3)cc2C(F)F)c1 (single isomer, unassigned) [compound 49]
15 | 4% | 2.04 nM |  | COc1cc(-c2ccc3nn(C)cc3c2C)nnc1N[C@H]1C[C@@H]2CN(CC3CCOCC3)C[C@@H]2C1 [compound 8, (3aR,5s,6aS)-N-(6-(2,4-dimethyl-2H-indazol-5-yl)-4-methoxypyridazin-3-yl)-2-((tetrahydro-2H-pyran-4-yl)methyl)octahydrocyclopenta[c]pyrrol-5-amine]
16 | 3% | 1 nM |  | [2H]C([2H])(C1CCOCC1)N1C[C@H]2C[C@H](Nc3nnc(-c4cc(F)ccc4F)cc3C)C[C@H]2C1 [compound 11, (3aR,5s,6aS)-N-(6-(2,5-difluorophenyl)-4-methylpyridazin-3-yl)-2-((tetrahydro-2H-pyran-4-yl)methyl-d2)octahydrocyclopenta[c]pyrrol-5-amine]
17 | 5% | 0.14 nM |  | Cc1cc(N[C@H]2C[C@@H]3CN(CC4CCOCC4)C[C@@H]3C2)nnc1-c1cc(F)ccc1F [compound 13, (3aR,5s,6aS)-N-(6-(2,5-difluorophenyl)-5-methylpyridazin-3-yl)-2-((tetrahydro-2H-pyran-4-yl)methyl)octahydrocyclopenta[c]pyrrol-5-amine]
18 | 3% | 2.36 nM |  | Cc1cc(N[C@H]2C[C@@H]3CN(CC4CCOCC4)C[C@@H]3C2)nnc1-c1cc(F)ccc1Cl [compound 14, (3aR,5s,6aS)-N-(6-(2-chloro-5-fluorophenyl)-5-methylpyridazin-3-yl)-2-((tetrahydro-2H-pyran-4-yl)methyl)octahydrocyclopenta[c]pyrrol-5-amine]
19 | 3% | 1.1 nM |  | Cc1cc(N[C@H]2C[C@@H]3CN(CC4CCOCC4)C[C@@H]3C2)nnc1-c1ccc2nn(C)cc2c1 [compound 15, (3aR,5s,6aS)-N-(5-methyl-6-(2-methyl-2H-indazol-5-yl)pyridazin-3-yl)-2-((tetrahydro-2H-pyran-4-yl)methyl)octahydrocyclopenta[c]pyrrol-5-amine]
